Data published in patent US20250295625A1, “AGENT FOR PROMOTING ODONTOBLAST PROPAGATION AND DIFFERENTIATION” (SUN MEDICAL CO., LTD., priority 2019, published 2025).

Key:
Type in all cases: cell-based
[1] = tested on: human dental pulp stem cell (hDPSC); assay: Differentiation test of human dental pulp stem cells into odontoblasts (real-time PCR); details: sample 5% by mass, 24 days, FIGS. 7A to 7E; for odontoblast-specific genes (BSP, rOPN, rOCB, rDSPP, and rDMP-1) mRNA expression: β-actin internal standard
Experimental: A DMEM for culturing hDPSC was prepared in the same manner as in the measurement of cell survival rate. […] The concentration of the sample in each odontoblast proliferation/differentiation promoting agent was 5% by mass. • Calcium salt of […]: […] (Comparative Example 1), • Calcium hydroxide: CH (Comparative Example 2), • Mineral trioxide aggregate: […] As an internal standard, β-actin was used. mRNA expression levels of RNA-bone sialoprotein (BSP) are shown in FIG. 7A. mRNA expression levels of RNA-osteopontin (rOPN) are shown in FIG. 7B. mRNA expression levels of RNA-osteocalcin (rOCN) are shown in FIG. 7C. mRNA expression levels of RNA-dentin sialophosphoprotein (rDSPP) are shown in FIG. 7D. mRNA expression levels of RNA-dentin matrix protein (rDMP-1) are shown in FIG. 7E.

[2] = tested on: MDPC-23 cell (rat dental papilla-derived cell), a rat odontoblast-like cell line; assay: Odontoblast proliferation test (CCK-8 assay); details: FIG. 4
Experimental: A Dulbecco's modified Eagle's medium (DMEM) added with 5% by mass of fetal bovine serum (FBS) was prepared. Then, an MDPC-23 cell (rat dental papilla-derived cell), which is a rat odontoblast-like cell line, was cultured in DMEM. Subsequently, 0.1 mL of DMEM where the MDPC-23 cells were cultured was injected into each well in a microplate (96 wells) so that 1000 MDPC-23 cells were distributed into each well.
Next, the odontoblast proliferation/differentiation promoting agents of Examples 1 to 10 and ultrapure water (control) were individually added to corresponding wells. Then, the added mixture was allowed to stand at ordinary temperature (25° C.) for 5 days. Thereafter, the proliferation of the MDPC-23 cells was evaluated using a kit for measuring the number of living cells (CCK-8: Cell Counting Kit-8).
In the CCK-8 assay, a microplate reader (measurement wavelength: 450 nm) was used. The CCK-8 assay was repeated 6 times.
The results of the CCK-8 assay in Examples 1 to 5 and the control were shown in FIG. 3 and the results of the CCK-8 assay in Examples 4, 6 to 10 and the control were shown in FIG. 4.

[3] = tested on: human dental pulp stem cell (hDPSC); assay: Calcification state of hDPSC culture (alkaline phosphatase measurement, alizarin red S staining); details: ALPase at 14, 21, 28 days (FIG. 8), alizarin red S at 30 and 32 days (FIGS. 9A, 9B)
Experimental: When DMEM containing the odontoblast proliferation/differentiation promoting agent of Example 12 and ultrapure water (control) therein was allowed to stand for 14, 21, and 28 days, the calcification state thus obtained was evaluated via alkaline phosphatase (ALPase) measurement.
Further, when DMEM containing the odontoblast proliferation/differentiation promoting agents of Example 12 and Comparative Examples 1 to 4 and ultrapure water (control) therein was allowed to stand for 30 and 32 days, the calcification state thus obtained was evaluated via alizarin red S staining measurement. The evaluation of the calcification state was performed using one-way ANOVA and Tukey's HSD post-hoc test with a significance level set at 1%

[4] = tested on: mesenchymal stem cell (MSC); assay: Differentiation test of mesenchymal stem cells into odontoblasts (real-time PCR); details: MSC, 10, 17, and 24 days
Experimental: A DMEM for culturing mesenchymal stem cell (MSC) was prepared in the same manner as the measurement of cell survival rate, except that hDPSC was replaced with MSC.
Next, the odontoblast proliferation/differentiation promoting agent of Example 12 and ultrapure water (control) were individually dissolved directly in the DMEM for culturing MSC. Then, DMEM was subjected to real-time PCR when allowed to stand for 10, 17, and 24 days. As an internal standard, β-actin was used.
mRNA expression levels of RNA-bone sialoprotein (BSP) are shown in FIG. 8A. mRNA expression levels of RNA-dentin matrix protein (rDMP-1) are shown in FIG. 8B.

Structure (SMILES) | differentiation of hDPSC into odontoblasts [1] | odontoblast-specific genes (BSP, rOPN, rOCB, rDSPP, and rDMP-1) mRNA expression [1] | effect of promoting proliferation and/or differentiation of the MDPC-23 cells ([2]; as the concentration of C-MET was increased to 500 μg/mL (Example 7)) | effect of promoting proliferation and/or differentiation of the MDPC-23 cells ([2]; when the concentration of C-MET exceeded 500 μg/mL) | calcification [3] | differentiation of MSC into odontoblasts [4] | odontoblast-specific genes (BSP, rDMP-1) mRNA expression ([4]; β-actin internal standard)
C=C(C)C(=O)OCCOC(=O)c1ccc(C(=O)[O-])c(C(=O)[O-])c1.[Ca+2] [C-MET, calcium salt of 4-methacryloyloxyethyltrimellitic acid] | promoted | increased | gradually improved | not found any further improvement | promoted | promoted | increased
[Ca+2].[OH-].[OH-] [CH, Calcium hydroxide, reference compound] | not observed | no increase |  |  | calcification was found |  | 
[Ca+2].[Cl-].[Cl-] [CaCl2, Calcium chloride] |  |  |  |  | calcification was found |  | 
